Key:
D3 (h) = D3 (h) (Homo sapiens, UniProt P35462); assay: CEREP radioligand binding; details: radioligand [^3H]-methyl-spiperone
Source text: (§1) Supplement Table1.docx, table 3: Supplementary Table S3. RG7774 binding to non-CB1R/CB2R receptors, ion channels, transporters, and enzymes (CEREP, Celle l’Evescault, France; http://www.cerep.fr). | column: % inhibition of control SB (n = 2)

Dopamine transporter (h) = Dopamine transporter (h) (Homo sapiens, UniProt Q01959); assay: CEREP radioligand binding; details: radioligand [^3H]-BTCP
Source text: as §1

D4.4 (h) = D4.4 (h) (Homo sapiens, UniProt P21917); assay: CEREP radioligand binding; details: radioligand [^3H]-methyl-spiperone
Chain of D4.4 (h) (P21917 whole entry): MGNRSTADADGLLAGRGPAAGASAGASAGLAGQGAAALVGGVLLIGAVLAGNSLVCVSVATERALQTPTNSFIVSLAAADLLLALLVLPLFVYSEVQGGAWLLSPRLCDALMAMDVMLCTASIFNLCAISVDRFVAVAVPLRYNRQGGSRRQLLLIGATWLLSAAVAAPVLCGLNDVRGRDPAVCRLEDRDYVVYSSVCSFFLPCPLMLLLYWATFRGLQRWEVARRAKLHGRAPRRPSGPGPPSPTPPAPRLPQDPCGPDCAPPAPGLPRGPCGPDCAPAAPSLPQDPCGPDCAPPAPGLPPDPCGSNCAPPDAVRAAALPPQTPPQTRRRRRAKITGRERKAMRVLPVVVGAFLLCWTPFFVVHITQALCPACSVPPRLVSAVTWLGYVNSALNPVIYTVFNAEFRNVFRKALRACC
Source text: as §1

5-HT5A (h) = 5-HT5A (h) (Homo sapiens, UniProt P47898); assay: CEREP radioligand binding; details: radioligand [^3H]-LSD
Chain of 5-HT5A (h) (P47898 whole entry): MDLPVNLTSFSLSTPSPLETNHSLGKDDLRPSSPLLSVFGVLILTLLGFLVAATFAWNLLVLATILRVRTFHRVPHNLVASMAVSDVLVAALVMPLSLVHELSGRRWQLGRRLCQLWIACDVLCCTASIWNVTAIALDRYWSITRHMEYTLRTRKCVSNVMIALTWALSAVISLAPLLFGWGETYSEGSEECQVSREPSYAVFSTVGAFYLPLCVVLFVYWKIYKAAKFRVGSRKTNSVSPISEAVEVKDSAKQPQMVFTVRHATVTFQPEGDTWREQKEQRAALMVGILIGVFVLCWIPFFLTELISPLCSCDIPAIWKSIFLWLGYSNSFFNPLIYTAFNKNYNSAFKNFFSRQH
Source text: as §1

EP4 (h) = EP4 (h) (Homo sapiens, UniProt P35408); assay: CEREP radioligand binding; details: radioligand [^3H]-PGE2
Source text: as §1

CCR1 = CCR1 (Homo sapiens, UniProt P32246); assay: CEREP radioligand binding; details: radioligand [^125I]-MIP-1α
Chain of CCR1 (P32246 whole entry): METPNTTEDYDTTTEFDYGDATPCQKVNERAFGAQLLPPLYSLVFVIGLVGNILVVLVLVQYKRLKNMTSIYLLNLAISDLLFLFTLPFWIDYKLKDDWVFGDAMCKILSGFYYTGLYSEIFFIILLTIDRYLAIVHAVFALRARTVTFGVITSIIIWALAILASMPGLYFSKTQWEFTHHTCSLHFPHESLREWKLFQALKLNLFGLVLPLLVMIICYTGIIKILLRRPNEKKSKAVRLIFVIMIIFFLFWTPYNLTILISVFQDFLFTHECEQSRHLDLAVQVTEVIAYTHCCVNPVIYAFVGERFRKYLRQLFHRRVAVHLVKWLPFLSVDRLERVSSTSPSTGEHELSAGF
Source text: as §1

GAL1 = GAL1 (Homo sapiens, UniProt P47211); assay: CEREP radioligand binding; details: radioligand [^125I]-galanin
Source text: as §1

5-HT1B (h) = 5-HT1B (h) (Homo sapiens, UniProt P28222); assay: CEREP radioligand binding; details: radioligand [^125I]-CYP (+ 30 μM isoproterenol)
Source text: as §1

NK3 (h) = NK3 (h) (Homo sapiens, UniProt P29371); assay: CEREP radioligand binding; details: radioligand [^3H]-SR 142801
Chain of NK3 (h) (P29371 whole entry): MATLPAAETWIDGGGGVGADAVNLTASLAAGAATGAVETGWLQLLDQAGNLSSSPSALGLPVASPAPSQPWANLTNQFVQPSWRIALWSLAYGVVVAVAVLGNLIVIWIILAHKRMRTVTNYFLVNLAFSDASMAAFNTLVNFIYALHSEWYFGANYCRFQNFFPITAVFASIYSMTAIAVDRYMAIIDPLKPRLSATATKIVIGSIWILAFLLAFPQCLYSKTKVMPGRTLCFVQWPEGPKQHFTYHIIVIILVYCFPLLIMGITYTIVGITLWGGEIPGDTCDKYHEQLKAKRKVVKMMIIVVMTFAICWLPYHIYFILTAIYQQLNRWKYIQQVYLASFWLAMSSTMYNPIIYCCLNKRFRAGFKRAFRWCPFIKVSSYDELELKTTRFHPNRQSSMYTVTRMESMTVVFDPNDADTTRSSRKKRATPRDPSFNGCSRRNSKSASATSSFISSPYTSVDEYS
Source text: as §1

Y1 (h) = Y1 (h) (Homo sapiens, UniProt P25929); assay: CEREP radioligand binding; details: radioligand [^125I]-peptide YY
Chain of Y1 (h) (P25929 whole entry): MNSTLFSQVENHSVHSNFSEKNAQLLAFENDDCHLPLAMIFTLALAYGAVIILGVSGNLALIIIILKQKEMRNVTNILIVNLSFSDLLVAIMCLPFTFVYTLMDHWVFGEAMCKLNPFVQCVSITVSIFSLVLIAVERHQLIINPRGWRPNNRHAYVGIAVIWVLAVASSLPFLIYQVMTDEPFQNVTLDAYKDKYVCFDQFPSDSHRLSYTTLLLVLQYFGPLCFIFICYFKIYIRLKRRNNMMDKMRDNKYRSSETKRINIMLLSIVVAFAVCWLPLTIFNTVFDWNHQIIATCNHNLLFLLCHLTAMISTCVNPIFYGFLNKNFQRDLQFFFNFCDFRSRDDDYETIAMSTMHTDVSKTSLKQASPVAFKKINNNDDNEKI
Source text: as §1

H1 (h) = H1 (h) (Homo sapiens, UniProt P35367); assay: CEREP radioligand binding; details: radioligand [^3H]-pyrilamine
Source text: as §1

[1] = Plasma PK profile in rats; format: in vivo, Wistar rats; details: mean (% CV)
Protocol: The plasma PK profile of RG7774 was assessed in adult male C57BL/6J mice and female Wistar rats (Charles River, Cologne, Germany) housed in a controlled environment (temperature, humidity, and 12 h light/dark cycle) with unrestricted access to food and water. The ocular PK profile of RG7774 was assessed in adult female […] rats (Charles River, Mattawan, MI, United States) housed in a controlled environment (21°C–22°C temperature, 40%–60%, humidity, and 12 h light/dark cycle) with unrestricted access to food and water and conducted according to local regulations by EyeCRO (Ann Arbor, MI, United States).
In the first study (animal permission #1857), mice received RG7774 as an intravenous (IV) bolus at 1 mg/kg (n = 6) or as an oral (PO) dose at 3 mg/kg (n = 5). In the second study (animal permission #2373), rats received RG7774 as an IV bolus at 10 mg/kg (n = 4) or via gavage at 30 mg/kg (n = 3). Blood samples were collected 0.1, 1, 3, 10, and 24 h post-dose under deep anesthesia with 3%–5% isoflurane in 100% O2. Samples were collected sublingually from mice, from the tail vein in rats or via heart puncture (terminal) into anticoagulant-coated polypropylene tubes and placed on ice. Plasma was prepared within 30 min of collection by centrifugation at 3,000 g for 5 min at 4°C and was immediately frozen. RG7774 concentrations in plasma were determined using LC-MS/MS. PK parameters were estimated by non-compartmental analysis of plasma data using Phoenix WinNonlin software (Certara, Princeton, NJ, United States).

P-gp [2] = target: T1, P-gp (Mus musculus, UniProt P21447); assay: P-gp assay in transfected LLC-PK1 cells; format: in vitro ADME
T1 construct: host or cells: LLC-PK1 (porcine kidney epithelial) cells
T1 sequence (P21447 whole entry): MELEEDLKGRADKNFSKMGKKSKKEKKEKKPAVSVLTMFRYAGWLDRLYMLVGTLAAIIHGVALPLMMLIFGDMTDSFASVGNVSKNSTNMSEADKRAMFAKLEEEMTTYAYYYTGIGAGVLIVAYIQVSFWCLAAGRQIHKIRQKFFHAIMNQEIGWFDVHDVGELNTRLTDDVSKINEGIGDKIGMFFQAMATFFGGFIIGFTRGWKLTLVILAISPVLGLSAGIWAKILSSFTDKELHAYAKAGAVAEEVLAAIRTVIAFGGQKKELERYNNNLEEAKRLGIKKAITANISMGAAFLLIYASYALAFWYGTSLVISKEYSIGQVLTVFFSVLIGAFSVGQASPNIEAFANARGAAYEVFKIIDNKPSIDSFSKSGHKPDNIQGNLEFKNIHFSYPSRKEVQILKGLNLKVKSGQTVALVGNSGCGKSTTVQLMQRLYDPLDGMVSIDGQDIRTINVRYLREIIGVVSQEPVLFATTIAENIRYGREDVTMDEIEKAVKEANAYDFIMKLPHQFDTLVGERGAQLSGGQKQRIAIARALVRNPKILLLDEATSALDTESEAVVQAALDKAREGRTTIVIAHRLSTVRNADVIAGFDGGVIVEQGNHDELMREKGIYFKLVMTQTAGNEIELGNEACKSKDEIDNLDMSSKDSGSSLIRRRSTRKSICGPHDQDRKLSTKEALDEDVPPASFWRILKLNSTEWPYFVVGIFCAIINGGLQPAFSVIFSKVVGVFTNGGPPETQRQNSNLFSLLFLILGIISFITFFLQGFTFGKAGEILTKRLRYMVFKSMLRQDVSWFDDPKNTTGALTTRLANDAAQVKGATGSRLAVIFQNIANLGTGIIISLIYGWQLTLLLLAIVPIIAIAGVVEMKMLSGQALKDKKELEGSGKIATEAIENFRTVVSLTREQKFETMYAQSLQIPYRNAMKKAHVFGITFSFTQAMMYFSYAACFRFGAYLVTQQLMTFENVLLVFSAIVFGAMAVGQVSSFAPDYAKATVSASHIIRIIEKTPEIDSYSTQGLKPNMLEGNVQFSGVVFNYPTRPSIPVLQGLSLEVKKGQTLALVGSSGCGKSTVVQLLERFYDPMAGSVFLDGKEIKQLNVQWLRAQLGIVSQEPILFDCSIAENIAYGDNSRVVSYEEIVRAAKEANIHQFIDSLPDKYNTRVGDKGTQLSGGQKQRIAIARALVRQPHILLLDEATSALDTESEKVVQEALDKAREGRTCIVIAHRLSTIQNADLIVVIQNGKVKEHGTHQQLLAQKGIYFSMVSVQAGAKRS
Protocol: (§2) The P-gp assay was conducted as previously described. Briefly, transfected porcine kidney epithelial (LLC-PK1) cells expressing human or mouse P-gp were cultured on 96-well semi-permeable filter membrane plates (Millipore, Darmstadt, Germany). LLC-PK1 cells were provided by Dr A. Schinkel from The Netherlands Cancer Institute (Amsterdam, The Netherlands). Cells formed a polarized monolayer with tight junctions that acted as a barrier between apical and basolateral compartments. P-gp was expressed in the apical-facing membrane of the monolayer (tightness confirmed using Lucifer yellow). […] The effect of P-gp was measured by expressing the efflux ratio of the unidirectional A > B and B > A Papp values. The mean permeability (A > B and B > A Papp) was determined in the absence of P-gp via the addition of the selective P-gp inhibitor, zosuquidar.

P-gp [3] = target: T2, P-gp (Homo sapiens, UniProt P08183); assay: P-gp assay in transfected LLC-PK1 cells; format: in vitro ADME
T2 construct: host or cells: LLC-PK1 (porcine kidney epithelial) cells
T2 sequence (P08183 whole entry): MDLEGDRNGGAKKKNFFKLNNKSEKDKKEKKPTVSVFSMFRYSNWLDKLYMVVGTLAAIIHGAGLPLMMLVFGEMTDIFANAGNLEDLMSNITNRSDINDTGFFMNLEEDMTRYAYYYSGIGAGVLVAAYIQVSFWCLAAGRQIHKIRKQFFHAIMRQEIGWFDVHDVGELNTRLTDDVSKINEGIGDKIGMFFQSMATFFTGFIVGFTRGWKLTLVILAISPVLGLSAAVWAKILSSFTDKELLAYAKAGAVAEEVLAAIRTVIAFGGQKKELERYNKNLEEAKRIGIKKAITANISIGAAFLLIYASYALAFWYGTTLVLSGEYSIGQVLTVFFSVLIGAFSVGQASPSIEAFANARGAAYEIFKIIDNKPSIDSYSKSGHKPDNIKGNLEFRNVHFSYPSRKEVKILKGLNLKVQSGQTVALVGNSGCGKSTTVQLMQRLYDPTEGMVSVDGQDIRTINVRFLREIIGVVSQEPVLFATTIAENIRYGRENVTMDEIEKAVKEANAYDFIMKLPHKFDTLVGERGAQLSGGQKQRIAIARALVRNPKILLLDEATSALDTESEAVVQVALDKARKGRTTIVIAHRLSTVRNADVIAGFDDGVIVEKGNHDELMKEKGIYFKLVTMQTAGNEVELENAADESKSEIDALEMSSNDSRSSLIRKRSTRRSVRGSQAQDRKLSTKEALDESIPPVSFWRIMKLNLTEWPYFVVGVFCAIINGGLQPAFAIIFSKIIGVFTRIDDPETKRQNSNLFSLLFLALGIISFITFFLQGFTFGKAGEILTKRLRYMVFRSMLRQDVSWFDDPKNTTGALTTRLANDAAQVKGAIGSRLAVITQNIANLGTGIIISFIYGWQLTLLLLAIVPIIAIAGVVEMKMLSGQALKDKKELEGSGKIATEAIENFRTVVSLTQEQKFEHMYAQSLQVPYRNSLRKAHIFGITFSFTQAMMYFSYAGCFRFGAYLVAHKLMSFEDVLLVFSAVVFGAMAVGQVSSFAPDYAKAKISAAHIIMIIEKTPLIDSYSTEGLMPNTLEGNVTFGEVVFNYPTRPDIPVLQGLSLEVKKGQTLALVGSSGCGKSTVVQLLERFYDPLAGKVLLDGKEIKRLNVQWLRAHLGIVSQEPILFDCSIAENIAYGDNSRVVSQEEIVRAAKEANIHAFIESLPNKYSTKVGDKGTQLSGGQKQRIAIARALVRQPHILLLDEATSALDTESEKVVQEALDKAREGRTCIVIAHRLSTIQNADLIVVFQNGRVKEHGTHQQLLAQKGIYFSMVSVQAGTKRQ
Protocol: as §2

Human DAGL = Human DAGL assay (HaCaT cells); format: biochemical; details: RG7774 10 µM
Protocol: Mouse brain or human HaCaT cells (CLS Cell Lines Service, GmbH, Eppelheim, Germany) were homogenized in 50 mM Tris-HCl (pH 7.4) using a glass potter, and homogenates were centrifuged at 4°C sequentially at 800 g (10 min) and 10,000 g (30 min). The final pellet (80–200 µg) was resuspended in 50 mM Tris-HCl (pH 7.4) containing 10 mM CaCl2 and incubated at 37°C for 30 min with sn-1[^14C]-stearoyl-2-arachidonoyl-glycerol (100 µM) (ARC, MO, USA). Reactions were stopped by adding chloroform/methanol (2:1, v/v), and the organic phase was dried and fractionated by thin-layer chromatography on silica gel, as previously reported. Levels of 1[^14C]-stearoyl acid radioactivity were determined by cutting the appropriate band from the gel and analyzing using a β-scintillation counter. Mouse cells were preincubated for 15 min with RG7774 (10 µM) and added to the incubation medium. Human cells were preincubated for 15 min with 8 different concentrations of RG7774 (0.1-500 µM) and added to the incubation medium. Control experiments were carried out in the presence of the selective DAGL inhibitor, D053 (10 µM).

[4] = Cerebrospinal fluid versus plasma concentration (data on file); format: in vivo; details: cynomolgus monkeys
endogenous CB2R = target: T3, endogenous CB2R (Homo sapiens, UniProt P34972); assay: Forskolin-stimulated cAMP in Jurkat cells; format: cell-based; details: data not shown
T3 construct: endogenous CB2R in human Jurkat cells; endogenous in cells; host or cells: Jurkat cells
T3 sequence (P34972 whole entry): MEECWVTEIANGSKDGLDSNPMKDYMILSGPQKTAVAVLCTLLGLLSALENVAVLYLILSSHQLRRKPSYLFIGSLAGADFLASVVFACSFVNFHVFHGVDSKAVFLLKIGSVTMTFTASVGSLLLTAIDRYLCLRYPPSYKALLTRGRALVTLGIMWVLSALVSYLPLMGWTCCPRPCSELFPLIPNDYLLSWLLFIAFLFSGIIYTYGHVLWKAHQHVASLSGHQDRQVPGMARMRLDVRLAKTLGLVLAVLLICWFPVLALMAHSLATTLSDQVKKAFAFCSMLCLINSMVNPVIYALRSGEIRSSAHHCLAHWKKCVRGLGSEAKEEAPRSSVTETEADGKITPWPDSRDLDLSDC

[5] = female, Wistar, rat, plasma, IV 10 mg/kg
[6] = female, Wistar, rat, plasma, PO 30 mg/kg

For `Cn1nnnc1Cn1nnc2c(N3CC[C@H](O)C3)nc(C(C)(C)C)nc21` [RG7774, (S)-1-(5-tert-butyl-3-[(1-methyl-1H-tetrazol-5-yl)methyl]-3H-[1,2,3]triazolo[4,5-d]pyrimidin-7-yl)pyrrolidin-3-ol], the “% inhibition of control SB (n = 2)” value (D3 (h)) was “–0.3%”, the “% inhibition of control SB (n = 2)” value (Dopamine transporter (h)) was 4.9% and the “% inhibition of control SB (n = 2)” value (D4.4 (h)) was 3.7%. The “% inhibition of control SB (n = 2)” value (5-HT5A (h)) was 2.2%, the “% inhibition of control SB (n = 2)” value (EP4 (h)) was “–8.7%” and the “% inhibition of control SB (n = 2)” value (CCR1) was 5.6%. For the same molecule, the “% inhibition of control SB (n = 2)” value (GAL1) was “–9.1%”, the “% inhibition of control SB (n = 2)” value (5-HT1B (h)) was “–10.6%” and the “% inhibition of control SB (n = 2)” value (NK3 (h)) was 8.2%. The “% inhibition of control SB (n = 2)” value (Y1 (h)) was “–5.5%”, the “% inhibition of control SB (n = 2)” value (H1 (h)) was “–8.8%” and the AUCinf/dose ([1]; IV 10 mg/kg) was 6,000 (16) ng h^–1 ml^–1 (mg kg^−1) ^−1. The AUCinf/dose ([1]; PO 30 mg/kg) was 4,670 (9.4) ng h^–1 ml^–1 (mg kg^−1) ^−1, the Cmax/dose ([1]; PO 30 mg/kg) was 466 (13) ng ml^–1 (mg kg^–1) ^−1 and the clearance [1, 5] was 2.84 mL/min/kg. The half-life [1, 5] was 2.54 h, the Vd ([1]; female, Wistar, rat, plasma, IV 10 mg/kg, read-out: Vss) was 0.442 L/kg and the Tmax [1, 6] was 1.25 h. It also gave a bioavailability [1, 6] of 81.4%, a half-life [1, 6] of 3.18 h and an efflux ratio at 3 h (P-gp [2]) of 16.2. The efflux ratio at 3 h (P-gp [3]) was 2.5, the “Mean ± SEM % inhibition of control, Human DAGL” value (Human DAGL) was 4.2 ± 52.2% and the “concentrations lower in cerebrospinal fluid than in plasma” value [4] was “approximately 10 fold”. For the same molecule, the “inhibition of forskolin-stimulated intracellular cAMP levels in Jurkat cells” value (endogenous CB2R) was “did not inhibit”.
